Assay results reported in patent US9580487B2, “Method of treating stomach or bowel-related disorders by administering glucagon-like-peptide-2 (GLP-2) analogues” (Zealand Pharma A/S, priority 2005, dated 2017).
Entries after “also recorded” stand apart in the source; their conditions may differ. No end group written: not given here.

Columns and labels:
[1] = tested on: male Sprague Dawley rats treated with indomethacin; assay: Indomethacin-induced small intestinal ulcers (model of Crohn's disease), extent of ulceration; type: in vivo; conditions: for Effect on ulceration compared with prednisolone: highest dose 200 nmol/kg vs prednisolone 10 mg/kg; for Estimated extent of ulceration: indomethacin alone 333±21 mm^2
Description: FIG. 13 is a graph illustrating the effect of compound 1848 (SEQ ID NO:36) on small intestinal ulcers induced by indomethacin. Male Sprague Dawley rats were treated with vehicle (saline; group 1) or indomethacin (7 mg/kg s.c., once daily for two days; groups 2-7). Indomethacin was given alone (group 2) or in combination with prednisolone (10 mg/kg s.c.; group 3) or with 8, 40, or 200 nmol/kg compound 1848 (SEQ ID NO:36) s.c. […] (groups 4-6). Finally, one group of rats was treated with combination treatment of prednisolone (10 mg/kg s.c.) and compound 1848 (SEQ ID NO:36), 200 nmol/kg s.c. once daily (group 7). Treatment with compound 1848 (SEQ ID NO:36) was initiated 4 days prior to indomethacin and continued during the two days of indomethacin treatment. On day 3, rats were sacrificed and upon necropsy, the small intestine was gently flushed with 10% formalin and filled with formalin for a period of 5 minutes, after which the intestine was cut open along the antimesenteric margin and suspended on a polypropylene plate. Any remaining intestinal contents were carefully removed with a pair of tweezers. After fixation for another 24 hours at room temperature, the tissue was rinsed in Milli-Q water and surface-stained for 20 minutes with Alcian Green 3BX (Chroma) prepared as a 0.5% solution in 1% acetic acid (Bie & Berntsen). After removal of excess staining solution with Milli-Q water the tissue preparation was transferred to 70% alcohol and analyzed using a stereomicroscope at low magnification (×7). Starting at the pylorus, the small intestine was scanned and the shape (circular vs. linear) and size (circular ulcers: diameter, linear ulcers: length×width) of all ulcers was measured using a standard ruler (resolution: 0.5 mm). An ulcer was defined as an area, which lacked epithelial surface. In healing ulcers only the area that still lacked epithelial surface was regarded an ulcer even if the villus structure was still missing in a larger area. All analysis was performed in a blinded manner. […] Treatment with prednisolone caused a significant reduction in the extent of ulceration by app. 29%. […] Values are means±SEM. * P<0.05 vs. indomethacin (group 2). ^#P<0.05 vs. prednisolone (group 3).
Crohn's disease is a chronic disease that causes episodic inflammation of the small intestine. The effect of the GLP-2 analogue 1848 (SEQ ID NO:36) on small intestinal inflammation in an indomethacin-induced model of Crohn's disease was investigated. We have previously shown that administration of indomethacin (s.c, once daily for 2 days) induces small intestinal inflammation characterized by ulcerations and, increases in the pro-inflammatory cytokine, tumour necrosis factor alpha (TNF-α).
To determine the effect of ZP1848 (SEQ ID NO:36) on ulceration 1848 (SEQ ID NO:36) (8, 40 and 200 nmol/kg, s.c, twice daily (9:00 and 16:00)) was given for 4 days prior to the first dose of indomethacin and for an additional two days together with indomethacin. The corticosteroid, prednisolone (10 mg/kg, p.o) was used as a positive control since corticosteroids are commonly used in the treatment of active inflammation in Crohn's disease. In addition a group of animals were given both 1848 (SEQ ID NO:36) (200 nmol/kg) and prednisolone to determine the effects of a combination treatment. Twenty four hours after the last dose of 1848 (SEQ ID NO:36) had been given the animals were sacrificed the small intestine was gently flushed clean and fixed. To determine the extent of ulceration the intestine was cut open along the antimesenteric margin, suspended on a polypropylene plate and surface-stained with Alcian Green 3BX. Starting at the pylorus, the small intestine was scanned and the shape (circular vs. linear) and size (circular ulcers: diameter, linear ulcers: length×width) of all ulcers was measured using a standard ruler (resolution: 0.5 mm). An ulcer was defined as an area, which lacked epithelial surface. […]

Sprague Dawley rats = assay: Crypt-villus length and muscularis thickness in the small intestine of SD rats; type: in vivo
Description: FIG. 12 is a set of graphs showing the effect of compound 1846 (SEQ ID NO:34) on epithelial crypt-villus height (FIG. 12A) and muscular thickness (FIG. 12B) in the jejunum (i.e., mid section of the small intestine). Sprague Dawley rats were treated intravenously with compound 1846 (SEQ ID NO:34) (0.62, 3.41 or 6.2 mg/kg once daily) for 5 days (n=6/dose group). Then the animals were sacrificed and small intestinal biopsies (1 cm) were collected 25 cm distal from the pyloric sphincter. The biopsies were fixed, embedded in paraffin, sectioned and stained with haematoxylin and eosin. Stained sections were examined under a microscope and crypt depth, villus height, crypt-villus length and muscularis thickness measured. […] Values are means±SEM. * P<0.05, relative to vehicle controls (0 mg/kg/d).
The effect of the clinical candidate, 1846 (SEQ ID NO:34), on crypt-villus length and muscularis thickness in the small intestine of SD rats was investigated. 1846 (SEQ ID NO:34) (0.62, 3.41 or 6.2 mg/kg/day, n=6 rats/dose group) was administered as an i.v. bolus, once daily for five consecutive days. Twenty-four hours after the last dose had been administered the rats were sacrificed and a 1 cm biopsy was excised from the jejunum (30 cm distal from the gastric duodenal junction) and from the ileum (30 cm proximal from the ileocaecal junction) for histological processing.

Substance | Effect on ulceration compared with prednisolone [1] | Muscular thickness of the jejunum (Sprague Dawley rats; 0.62, 3.41 or 6.2 mg/kg i.v. once daily for 5 days) | Crypt-villus length (Sprague Dawley rats; 0.62, 3.41 or 6.2 mg/kg i.v. once daily for 5 days, jejunum (and ileum)) | Muscularis thickness in the ileum (Sprague Dawley rats; 0.62, 3.41 or 6.2 mg/kg/day i.v. for five days) | Estimated extent of ulceration ([1]; 8 nmol/kg s.c.) [mm^2] | Estimated extent of ulceration ([1]; 40 nmol/kg s.c.) [mm^2] | Ulceration: addition of prednisolone to high dose compound ([1]; 200 nmol/kg plus prednisolone 10 mg/kg) | Estimated extent of ulceration ([1]; 200 nmol/kg s.c.) [mm^2] | Prevention of indomethacin-induced ulceration (in words) ([1]; 8, 40, 200 nmol/kg) | Reduction of total ulceration ([1]; highest dose (200 nmol/kg) vs indomethacin alone) [%]
[Gly2, Glu3, Ser8,11, Leu10, Ala16,24,28]hGLP-2(1-33)-(Lys)6-NH2 (HGEGSFSSELSTILDALAARDFIAWLIATKITDKKKKKK-NH2) [Compound 1846] | greater than the effect of prednisolone | no effect on the muscular thickness of the jejunum | dose-dependent increases in crypt-villus length; also recorded: dose-dependently increased mean crypt-villus length in the jejunum and ileum | dose-dependently increased |  |  |  |  |  | 
[Gly2, Glu3, Thr5, Ser8, Leu10, Ala11,16,24,28]hGLP-2(1-33)-(Lys)6-NH2 (HGEGTFSSELATILDALAARDFIAWLIATKITDKKKKKK-NH2) [Compound 1848] | more effective than the positive control, prednisolone |  |  |  | 230±12 | 216±17 | did not produced any additional effect | 178±17 | prevented indomethacin-induced ulceration in a dose-dependent fashion | ~50
